Consider 6 compounds from US20260184663A1, “INDENE COMPOUNDS, PHARMACEUTICAL COMPOSITIONS THEREOF, AND THEIR THERAPEUTIC APPLICATIONS” (NucMito Pharmaceuticals co. Ltd., priority 2022, published 2026).

Read-outs that look alike come from different tables or passages of the source.

What all share (assay type): cell-based
The test system of one experiment is SW480 (colon cancer). Put plainly: Antiproliferative activity (CCK-8 cell viability), SW480. The settings on record: Homo sapiens, 72 h, read-out: Antiproliferative activity in cancerous cells, SW480 (inhibition of cell growth); for inhibition at 3.3 µM: Compound concentration: 3.3 μM; for inhibition at 10 µM: Compound concentration: 10 μM; for inhibition at 30 µM: Compound concentration: 30 μM. The method, boiled down: (§1)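 Cells grown in DMEM (HepG2, SW480), MEM (HeLa) or F-12K (A549), each with 10% FBS, then exposed to compound at 3.3, 10 or 30 μM for 72 h at 37 °C. CCK-8 absorbance at 450 nm; viability expressed as percent of DMSO-treated cells, graded as growth inhibition bands.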

Experiment [1] deals with B16F10 (malignant melanoma). Kind of experiment: Antiproliferative activity (CCK-8 cell viability), B16F10. The settings on record: Mus musculus, 72 h, read-out: Antiproliferative activity in cancerous cells, B16F10 (inhibition of cell growth); for inhibition at 3.3 µM: B16-F10, Compound concentration: 3.3 μM; for inhibition at 10 µM: B16-F10, Compound concentration: 10 μM; for inhibition at 30 µM: B16-F10, Compound concentration: 30 μM. In outline: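 B16F10 melanoma cells grown in DMEM with 10% FBS were plated in 96-well plates at 2,000-5,000 cells/well. After attachment they were exposed to compound in medium for 72 h at 37° C. CCK-8 solution (10 μL) was then added, and after 4 h at 37° C absorbance was read at 450 nm.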

Another experiment relates to HepG2 (liver cancer). Kind of experiment: Antiproliferative activity (CCK-8 cell viability), HepG2. The settings on record: Homo sapiens, 72 h, read-out: Antiproliferative activity in cancerous cells, HepG2 (inhibition of cell growth); for inhibition at 3.3 µM: Compound concentration: 3.3 μM; for inhibition at 10 µM: Compound concentration: 10 μM; for inhibition at 30 µM: Compound concentration: 30 μM. The method, boiled down: as §1

Experiment [2] concerns MDA-MB-231 (breast cancer). Kind of experiment: Antiproliferative activity (CCK-8 cell viability), MDA-MB-231. The settings on record: Homo sapiens, 72 h; for inhibition at 3.3 µM: Compound concentration: 3.3 μM; for inhibition at 10 µM: Compound concentration: 10 μM; for inhibition at 30 µM: Compound concentration: 30 μM. In outline:
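MDA-MB-231 breast cancer cells, grown in DMEM with 10% FBS, were plated in 96-well plates at 2,000-5,000 cells/well. Once attached, they were exposed to compound and incubated at 37° C. for 72 h. Viability was then measured with CCK-8 (10 μL per well, 4 h at 37° C.) by absorbance at 450 nm, relative to DMSO vehicle wells.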

The subject of the next experiment is HeLa (cervical cancer). Put plainly: Antiproliferative activity (CCK-8 cell viability), HeLa. The settings on record: Homo sapiens, 72 h, read-out: Antiproliferative activity in cancerous cells, HELA (inhibition of cell growth); for inhibition at 3.3 µM: Compound concentration: 3.3 μM; for inhibition at 10 µM: Compound concentration: 10 μM; for inhibition at 30 µM: Compound concentration: 30 μM. The method, boiled down: as §1

The subject of experiment [3] is A431 (epidermoid carcinoma). Put plainly: Antiproliferative activity (CCK-8 cell viability), A431. The settings on record: Homo sapiens, 72 h, read-out: Antiproliferative activity in cancerous cells, A431 (inhibition of cell growth); for inhibition at 3.3 µM: A-431, Compound concentration: 3.3 μM; for inhibition at 10 µM: A-431, Compound concentration: 10 μM; for inhibition at 30 µM: A-431, Compound concentration: 30 μM. In outline:
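A431 epidermoid carcinoma cells grown in DMEM with 10% FBS were plated at 2,000-5,000 cells/well in 96-well plates. After attachment they were exposed to compound at 3.3 μM, 10 μM, or 30 μM for 72 h at 37° C. Viability was then assessed by CCK-8 against DMSO vehicle-treated wells.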

Experiment [4] concerns A549 (lung adenocarcinoma). Kind of experiment: Antiproliferative activity (CCK-8 cell viability), A549. The settings on record: Homo sapiens, 72 h, read-out: Antiproliferative activity in cancerous cells, A549 (inhibition of cell growth); for inhibition at 3.3 µM: Compound concentration: 3.3 μM; for inhibition at 10 µM: Compound concentration: 10 μM; for inhibition at 30 µM: Compound concentration: 30 μM. The method, boiled down: as §1

[5] abbreviates: read-out: Antiproliferative activity in cancerous cells, MDA-MB-231 (inhibition of cell growth).

With `CC1=C(CC(=O)O)c2cc(F)ccc2/C1=C\c1ccc(CSc2ccc(F)cc2)cc1` [B45, (Z)-2-(5-Fluoro-1-(4-(((4-fluorophenyl)thio)methyl)benzylidene)-2-methyl-1H-inden-3-yl)acetic acid], the inhibition at 3.3 µM (in the experiment on SW480 (colon cancer); in experiment [1]; in the experiment on HepG2 (liver cancer); in experiment [2] (setting [5]); in the experiment with HeLa (cervical cancer); in experiment [3]) was < 30% each time. Further, the inhibition at 3.3 µM in experiment [4] was < 30%. The inhibition at 10 µM with SW480 (colon cancer) was ≥ 50%; in experiment [1], ≥ 50%; with HepG2 (liver cancer), ≥ 50%; in experiment [2] (setting [5]), < 30%; in the experiment with HeLa (cervical cancer) it was ≥ 50%; in experiment [3], 30 to 50%. The inhibition at 10 µM in experiment [4] is < 30%. In addition, in experiment [2] (read-out: Antiproliferative activity in cancerous cells, MDA-MB-231), the inhibition at 30 µM was < 30%.
Regarding `CC1=C(CC(=O)O)c2cc(F)ccc2/C1=C\c1ccc(C2(c3ccccc3)SCCS2)cc1` [C353, (Z)-2-(5-Fluoro-2-methyl-1-(4-(2-phenyl-1,3-dithiolan-2-yl)benzylidene)-1H-inden-3-yl)acetic acid], the inhibition at 3.3 µM is ≥ 50% in the experiment with SW480 (colon cancer); < 30% in experiment [1]; ≥ 50% in the experiment with HepG2 (liver cancer); ≥ 50% in experiment [2] (setting [5]); ≥ 50% with HeLa (cervical cancer); ≥ 50% in experiment [3]. In addition, the inhibition at 3.3 µM in experiment [4] was < 30%. The inhibition at 10 µM (in the experiment on SW480 (colon cancer); in experiment [1]; in the experiment on HepG2 (liver cancer); in experiment [2] (setting [5]); with HeLa (cervical cancer); in experiment [3]) was ≥ 50% throughout. Further, the inhibition at 10 µM in experiment [4] was ≥ 50%. For the same compound, the inhibition at 30 µM (with SW480 (colon cancer); in experiment [1]; in the experiment with HepG2 (liver cancer); in experiment [2] (setting [5]); with HeLa (cervical cancer); in experiment [3]) was ≥ 50% in each case. In addition, in experiment [4], the inhibition at 30 µM was ≥ 50%.
As for `CC1=C(CC(=O)O)c2cccc(F)c2/C1=C/c1cccc(COc2ccccc2)c1` [E8, (E)-2-(7-Fluoro-2-methyl-1-(3-(phenoxymethyl)benzylidene)-1H-inden-3-yl)-acetic acid], the inhibition at 3.3 µM in the experiment on SW480 (colon cancer) was 30 to 50%; in experiment [1], < 30%; in the experiment on HepG2 (liver cancer) it was 30 to 50%; in experiment [2] (setting [5]) it was ≥ 50%; in the experiment with HeLa (cervical cancer) it was 30 to 50%; in experiment [3], ≥ 50%. Further, the inhibition at 3.3 µM in experiment [4] is < 30%. Further, the inhibition at 10 µM with SW480 (colon cancer) was ≥ 50%; in experiment [1] it was 30 to 50%; in the experiment with HepG2 (liver cancer), ≥ 50%; in experiment [2] (setting [5]), ≥ 50%; in the experiment with HeLa (cervical cancer), ≥ 50%; in experiment [3] it was ≥ 50%. Also, in experiment [4], the inhibition at 10 µM was ≥ 50%. Moreover, the inhibition at 30 µM (in the experiment with SW480 (colon cancer); in experiment [1]; in the experiment on HepG2 (liver cancer); in experiment [2] (setting [5]); with HeLa (cervical cancer); in experiment [3]) was ≥ 50% each time. Further, in experiment [4], the inhibition at 30 µM was ≥ 50%.
For the compound `CC1=C(CC(=O)O)c2cc(F)ccc2/C1=C\c1ccc(COCc2ccc(F)c(F)c2)cc1` [B105, (Z)-2-(1-(4-(((3,4-Difluorobenzyl)oxy)methyl)benzylidene)-5-fluoro-2-methyl-1H-inden-3-yl)acetic acid], the inhibition at 3.3 µM is 30 to 50% in the experiment on SW480 (colon cancer); 30 to 50% in experiment [1]; < 30% in the experiment with HepG2 (liver cancer); 30 to 50% in experiment [2] (setting [5]); ≥ 50% in the experiment with HeLa (cervical cancer); 30 to 50% in experiment [3]. Also, the inhibition at 3.3 µM in experiment [4] is 30 to 50%. The inhibition at 10 µM (in the experiment on SW480 (colon cancer); in experiment [1]; in the experiment with HepG2 (liver cancer); in experiment [2] (setting [5]); in the experiment on HeLa (cervical cancer); in experiment [3]) was ≥ 50% in each case. The inhibition at 10 µM in experiment [4] is ≥ 50%.
For the compound `CC1=C(CC(=O)O)c2cc(F)ccc2/C1=C\c1ccc(Oc2ccc(Cl)cc2C)cc1` [C55, (Z)-2-(1-(4-(4-Chloro-2-methylphenoxy)benzylidene)-5-fluoro-2-methyl-1H-inden-3-yl)acetic acid], the inhibition at 3.3 µM in the experiment with SW480 (colon cancer) was < 30%; in experiment [1], ≥ 50%; in the experiment on HepG2 (liver cancer), < 30%; in experiment [2] (setting [5]), < 30%; in the experiment with HeLa (cervical cancer), ≥ 50%; in experiment [3] it was 30 to 50%. For the same compound, the inhibition at 3.3 µM in experiment [4] was < 30%. Also, the inhibition at 10 µM (with SW480 (colon cancer); in experiment [1]; in the experiment with HepG2 (liver cancer); in experiment [2] (setting [5]); in the experiment on HeLa (cervical cancer); in experiment [3]) was ≥ 50% each time. The inhibition at 10 µM in experiment [4] was < 30%.
As to `COc1ccc2c(c1)C(CC(=O)O)=C(C)/C2=C/c1ccc(Oc2ccc(Cl)cc2)cc1C` [C74, (Z)-2-(1-(4-(4-Chlorophenoxy)-2-methylbenzylidene)-5-methoxy-2-methyl-1H-inden-3-yl)acetic acid], the inhibition at 3.3 µM in the experiment with SW480 (colon cancer) was < 30%; in experiment [1], ≥ 50%; in the experiment on HepG2 (liver cancer), < 30%; in experiment [2] (setting [5]), ≥ 50%; in the experiment with HeLa (cervical cancer) it was < 30%; in experiment [3] it was ≥ 50%. The inhibition at 3.3 µM in experiment [4] was in the range of 30 to 50%. Also, the inhibition at 10 µM with SW480 (colon cancer) was 30 to 50%; in experiment [1], ≥ 50%; in the experiment on HepG2 (liver cancer), ≥ 50%; in experiment [2] (setting [5]), ≥ 50%; with HeLa (cervical cancer), ≥ 50%; in experiment [3] it was ≥ 50%. The inhibition at 10 µM in experiment [4] was ≥ 50%.
